For this series the following is noted: Crystal; DTA.

Numbers after ± are expanded uncertainties.

Take `[Ag][I]` [silver iodide]: the Triple point temperature is 832 ± 0.6 K.

As to `[Cl-].[Na+]` [sodium chloride], the Triple point temperature worked out at 1074 ± 0.6 K.

For the origin of these results see the NIST ThermoML archive (doi:10.1016/j.jct.2015.06.015).
